Test [1] concerns the target T1, RLuc8.6-535 (Renilla reniformis, UniProt P27652, A123S/A143M/A55T/C124A/D154M/D162E/E155G/I163L/K136R/M185L/M253L/S130A/S287L). Format: biochemical. The arrangement: expressed in transfected cells; host or cells: COST cells (so in the source). The following applies: bioluminescence spectrum, ATTO LumiFL. How it is done: (§1) As in the method for measuring bioluminescence intensity described above, luminescence spectrum was measured according to the protocol of Renilla Luciferase Assay System (Cat. No. E 2810; Promega). The luminescence spectrum was measured using ATTO LumiFL. The maximum luminescence intensities were normalized to be relative values to 1.0 upon determination of the maximum luminescence wavelength.

Test [2] deals with T2, RLuc8 (Renilla reniformis, UniProt P27652, A143M/A55T/C124A/K136R/M185V/M253L/S130A/S287L).
T2 construct: expressed in transfected cells; host or cells: COST cells (so in the source)
The test is classed as biochemical. The following applies: 2 μM substrate in PBS pH 7.4, cell lysate, maximum intensity over 1 second, relative value. The text has this:
(§2) The luciferases were respectively expressed in COST cells using an expression vector (pcDNA3.1(+), commercially available from Invitrogen) comprising the sequence encoding native Renilla Luciferase (RLuc) (trade name pGL4.75, commercially available from Promega) or an expression vector (trade name pcDNA3.1(+), commercially available from Invitrogen) comprising the sequence encoding a RLuc derivative RLuc8 or RLuc8.6-535 (Reference: Loening, A. M. et al., Nat. Methods, 2007, 4, 641-643.). The cells were lysed using a Renilla Luciferase Lysis Buffer (E291A, Promega), and the lysate was directly used as an enzyme solution. […] Bioluminescence was measured according to the protocol of Renilla Luciferase Assay System (Cat. No. E 2810; Promega). The luminescent substrate was dissolved in methanol to prepare a 2 mM solution. The solution was diluted to 2 μM with PBS buffer (pH 7.4), and the diluted solution was used as a substrate solution. To 200 μL of the substrate solution, 4 μL of the cell lysate containing RLuc, RLuc 8 or RLuc8.6-535 was added to start the luminescent reaction. The luminescence intensity was measured with a Berthold Lumat LB 9507 for 1 second, and indicated by the maximum luminescence intensity (I). The luminescence intensity of the native CTZ by RLuc8 was set to be 1.0, and the other bioluminescence intensities were normalized to be relative values to that of native CTZ.

Test [3] deals with T3, native Renilla Luciferase (RLuc) (Renilla reniformis, UniProt P27652).
T3 construct: expressed in transfected cells; host or cells: COST cells (so in the source)
T3 sequence (P27652 1-311): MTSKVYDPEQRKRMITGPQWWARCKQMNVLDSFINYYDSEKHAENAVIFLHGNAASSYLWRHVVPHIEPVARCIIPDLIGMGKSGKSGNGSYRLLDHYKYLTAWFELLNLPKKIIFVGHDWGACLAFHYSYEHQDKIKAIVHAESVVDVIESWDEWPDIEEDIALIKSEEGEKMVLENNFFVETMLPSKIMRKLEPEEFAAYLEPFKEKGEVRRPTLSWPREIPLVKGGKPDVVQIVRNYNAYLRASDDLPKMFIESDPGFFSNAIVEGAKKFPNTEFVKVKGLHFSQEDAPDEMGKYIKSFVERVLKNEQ
Nature of the test: Bioluminescence intensity, Renilla Luciferase luminescence system. Format: biochemical. As to conditions: 2 μM substrate in PBS pH 7.4, cell lysate, maximum intensity over 1 second, relative value.
Source text: as §2, with “To 200 μL of the substrate solution, 4 μL of the cell lysate containing RLuc, RLuc 8 or RLuc8.6-535 was added to start the luminescent reaction.” left out

Test [4] has as its target T2, RLuc8. Format: biochemical. The following applies: bioluminescence spectrum, ATTO LumiFL. How it is done: as §1
For test [5], the target named is T1, RLuc8.6-535. The test is classed as biochemical. Also noted: expressed in transfected cells; host or cells: COST cells (so in the source). As to conditions: for RLuc8.6-535 luminescence intensity (%): 2 μM substrate in PBS pH 7.4, cell lysate, maximum intensity over 1 second, relative value.
Source text: as §2

The target of test [6] is T4, NanoLuc (Oplophorus gracilirostris, UniProt Q9GV45, A31E/A60N/A81I/F95D/I117V/K70R/L54V/L99Q/M102K/N193R/P142E/Q151K/Q38R/Q45L/V71I/Y165I).
T4 construct: literature Promega
The following applies: combined with NanoLuc; cited from earlier work.

Test [7] has as its target T5, Renilla Luciferase (RLuc) (Renilla reniformis, UniProt P27652).
T5 sequence (P27652 1-311): T3 sequence (P27652 1-311)
As to conditions: cited from earlier work.

Test [8] has as its target T1, RLuc8.6-535. Nature of the test: Bioluminescence intensity, ALuc system test. Format: biochemical. Also noted: expressed in transfected cells. As to conditions: 1 μM substrate, relative to nCTZ/ALuc34. How it is done:
(§3) The cells were lysed using a Renilla Luciferase Buffer (E291A; Promega), and the lysate was directly used as an enzyme solution. As luminescent substrates, native CTZ (Nanolight technology) and 6-Al2N3-CTZ (Example 17) were used. Bioluminescence was measured according to the protocol of a Renilla Luciferase Assay System (Cat. No. E2810; Promega). The luminescent substrate was dissolved in methanol to prepare a 1 mM solution. The solution was diluted to 1 μM with Promega buffer, and the diluted solution was used as a substrate solution. To 40 μL of the substrate solution, 10 μL of the cell lysate containing RLuc8.6-535, ALuc16, ALuc22, ALuc23 or ALuc34 was added for starting the luminescent reaction. Using Fujifilm LAS-4000, the luminescence intensities were measured 0 and 20 minutes after the start of the enzyme reaction. Further, from the results of bioluminescence intensity shown in FIG. 3, the bioluminescence intensities were summarized in Tables 4-1 and 4-2 below, where the luminescence intensities were normalized to be the relative values of nCTZ/ALuc34 (100%).

In test [9] the test system is ALuc30. In words: Bioluminescence intensity, ALuc system test. Format: biochemical. As to conditions: 1 μM substrate, relative to nCTZ/ALuc34.
Test [10] has as its system ALuc22. In words: Bioluminescence intensity, ALuc system test. Format: biochemical. The following applies: 1 μM substrate, relative to nCTZ/ALuc34. The method, then:
as §3

Test [11] concerns ALuc34. Nature of the test: Bioluminescence intensity, ALuc system test. The test is classed as biochemical. As to conditions: for luminescence intensity (%): 1 μM substrate, relative to nCTZ/ALuc34. The method, then: as §3
Test [12] has as its system ALuc16. Nature of the test: Bioluminescence intensity, ALuc system test. Format: biochemical. The following applies: 1 μM substrate, relative to nCTZ/ALuc34. The method, then:
as §3

For test [13], the system named is ALuc23. In words: Bioluminescence intensity, ALuc system test. The test is classed as biochemical. The following applies: 1 μM substrate, relative to nCTZ/ALuc34. How it is done: as §3
In test [14] the test system is GLuc. Nature of the test: Bioluminescence intensity, ALuc system test. The test is classed as biochemical. As to conditions: 0 minutes after the start of measurement, 1 μM substrate, relative to nCTZ/ALuc34.
The test system of test [15] is ALuc24. In words: Bioluminescence intensity, ALuc system test. The test is classed as biochemical. The following applies: 1 μM substrate, relative to nCTZ/ALuc34.
Test [16] deals with artificial bioluminescent enzyme (ALuc). The following applies: same wavelength range (480-500 nm); cited from earlier work.
The mark [17] stands for this setting: RLuc8.6-535, 0 minutes after the start of measurement.
The mark [18] stands for this setting: ALuc30, 0 minutes after the start of measurement.
Where [19] appears, read: ALuc30, 20 minutes after the start of measurement.
The mark [20] stands for this setting: ALuc22, 0 minutes after the start of measurement.
Setting [21] is: ALuc22, 20 minutes after the start of measurement.
Setting [22] is: ALuc34, 0 minutes after the start of measurement.
[23] abbreviates: ALuc34, 20 minutes after the start of measurement.
[24] abbreviates: ALuc16, 0 minutes after the start of measurement.
[25] abbreviates: ALuc16, 20 minutes after the start of measurement.
Where [26] appears, read: ALuc23, 0 minutes after the start of measurement.
The mark [27] stands for this setting: ALuc23, 20 minutes after the start of measurement.
[28] abbreviates: ALuc24, 0 minutes after the start of measurement.
[29] abbreviates: ALuc24, 20 minutes after the start of measurement.

T2 sequence (P27652 whole entry A55T/C124A/S130A/K136R/A143M/M185V/M253L/S287L): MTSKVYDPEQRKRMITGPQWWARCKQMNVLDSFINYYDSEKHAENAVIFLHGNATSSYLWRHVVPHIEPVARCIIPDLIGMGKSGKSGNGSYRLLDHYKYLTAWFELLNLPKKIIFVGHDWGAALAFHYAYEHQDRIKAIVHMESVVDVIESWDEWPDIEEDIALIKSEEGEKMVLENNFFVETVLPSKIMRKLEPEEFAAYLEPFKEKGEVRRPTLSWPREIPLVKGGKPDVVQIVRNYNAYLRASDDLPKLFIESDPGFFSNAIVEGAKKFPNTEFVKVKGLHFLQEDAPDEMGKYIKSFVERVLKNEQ
T1 sequence (P27652 whole entry A55T/A123S/C124A/S130A/K136R/A143M/D154M/E155G/D162E/I163L/M185L/M253L/S287L): as the sequence (P27652 whole entry A55T/C124A/S130A/K136R/A143M/M185V/M253L/S287L) above, with A123S, D154M, E155G, D162E, I163L, V185L counted along it
T4 sequence (Q9GV45 28-196 with tags or gaps with the stated changes limits assumed): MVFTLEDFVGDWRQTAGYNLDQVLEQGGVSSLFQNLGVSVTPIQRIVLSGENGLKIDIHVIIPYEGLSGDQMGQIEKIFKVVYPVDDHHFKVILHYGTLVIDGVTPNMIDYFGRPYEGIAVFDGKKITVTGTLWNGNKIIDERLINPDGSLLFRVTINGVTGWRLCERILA

As for `O=c1c(Cc2ccc(O)cc2)nc2c(Cc3ccccc3)[nH]c(-c3ccc(OCCCO)cc3)cn1-2` [6-Alkyl3OH-CTZ], in [1], the “RLuc8.6-535 half-width (nm)” value was “[56] nm” and the “RLuc8.6-535 maximum luminescence wavelength (nm)” value came out at 415 nm. Further, in test [2], the “RLuc8 luminescence intensity (%)” value came out at 9.74%. Also, the “RLuc luminescence intensity (%)” value in [3] was 0.11%. Besides, in test [4], the “RLuc8 half-width (nm)” value is “[60] nm” and the “RLuc8 maximum luminescence wavelength (nm)” value is given as 414 nm. Besides, in [5], the “RLuc8.6-535 luminescence intensity (%)” value was 75.3%. The “luminescence intensity higher than that of DeepBlueC/RLuc8” value in [5] (with RLuc8.6-535, versus conventional blue-shifted RLuc luminescence system (DeepBlueC/RLuc8)) worked out at 32 fold.
Take `O=c1c(Cc2ccco2)nc2c(Cc3ccccc3)[nH]c(-c3ccccc3)cn1-2` [Furimazine]: the “luminescence intensity higher than that of the firefly luciferase luminescence system” value in test [6] is “about 100 fold”.
For the molecule `Oc1ccc(Cc2nc3c(Cc4ccccc4)nc(-c4ccc(O)cc4)cn3c2O)cc1` [Native-CTZ, coelenterazine], the “quantum yield of the RLuc luminescence system” value in test [7] (CTZ as luminescent substrate) is on record as 0.05. The “RLuc8.6-535 half-width (nm)” value in test [1] is “[111] nm”. Besides, in test [1], the “RLuc8.6-535 maximum luminescence wavelength (nm)” value worked out at 538 nm. In addition, the “luminescence intensity (%)” value is given as 0.05% in test [8] (setting [17]); 0.05% in test [8] (RLuc8.6-535, 20 minutes after the start of measurement); 0.28% in test [9] (setting [18]); 0.21% in [9] (setting [19]); 0.65% in [10] (setting [20]); 0.42% in test [10] (setting [21]). Further, the “luminescence intensity (%)” value worked out at 1.0% in test [11] (setting [22]); 1% in test [11] (setting [23]); 0.43% in test [12] (setting [24]); 0.42% in test [12] (setting [25]); 0.58% in [13] (setting [26]); 0.58% in [13] (setting [27]). For the same molecule, the “luminescence intensity (%)” value is 0.08% in test [14], 0.40% in test [15] (setting [28]) and 0.31% in [15] (setting [29]). Besides, in test [2], the “RLuc8 luminescence intensity (%)” value turned out to be 80.5%. Also, the “RLuc luminescence intensity (%)” value in [3] amounted to 10.7%. The “luminescence intensity higher than that of the conventional RLuc luminescence system” value in [16] is given as “about 50 fold”. The “RLuc8 half-width (nm)” value in [4] was “[98] nm”. Also, in test [4], the “RLuc8 maximum luminescence wavelength (nm)” value came out at 484 nm. The “RLuc8.6-535 luminescence intensity (%)” value in test [5] is 100%.
On to `[N-]=[N+]=NCCOc1ccc(-c2cn3c(=O)c(Cc4ccc(O)cc4)nc-3c(Cc3ccccc3)[nH]2)cc1` [Example 6-Al2N3-CTZ], for which the “luminescence intensity (%)” value stood at 0.01% in test [8] (setting [17]); 0.83% in [9] (setting [18]); 0.28% in test [9] (setting [19]); 1.32% in [10] (setting [20]); 0.46% in test [10] (setting [21]); 3.45% in test [11] (setting [22]). The “luminescence intensity (%)” value came to 1.27% in test [11] (setting [23]); 1.72% in test [12] (setting [24]); 0.60% in test [12] (setting [25]); 2.53% in test [13] (setting [26]); 1.00% in [13] (setting [27]); 0.56% in [15] (setting [28]). Besides, the “luminescence intensity (%)” value in test [15] (setting [29]) was 0.17%. Moreover, the “luminescence intensity higher than that of native CTZ/ALuc34” value in [11] (with ALuc34, immediately after the start of the measurement) is “about 3.4 fold”.
On to `O=c1c(Cc2ccccc2)nc2c(Cc3ccccc3)[nH]c(-c3ccccc3)cn1-2` [DeepBlueC (trade name), reference compound], for which, in test [7], the “luminescence intensity relative to the native RLuc luminescence system” value is recorded as “about 4%” and the “shift of luminescence wavelength to the shorter wavelength side compared to native CTZ” value is “about 80 nm”. In test [7] (emits light at around), the luminescence wavelength result is on record as “around 400 nm”. In [1], the “RLuc8.6-535 half-width (nm)” value is “[51] nm” and the “RLuc8.6-535 maximum luminescence wavelength (nm)” value worked out at 410 nm. The “RLuc8 luminescence intensity (%)” value in [2] worked out at 2.30%. In test [4], the “RLuc8 half-width (nm)” value was “[57] nm” and the “RLuc8 maximum luminescence wavelength (nm)” value is recorded as 416 nm. In addition, the “RLuc8.6-535 luminescence intensity (%)” value in [5] is listed as 5.80%.

(Values after US10239884B2, “Coelenterazine compounds and uses thereof” (KEIO UNIVERSITY, priority 2017, dated 2019).)
